Source: patent publication US6762052B1, “DNA sequence encoding flavin-containing monooxygenase” (priority 1993, dated 2004)

Tests used:
in vitro = conditions: human, pH 8.4
Method: (§1) In all cases examined, product formation was directly determined by HPLC analysis of organic extracts.
(§2) Human liver samples were obtained from the Department of Surgery (UCSF) and with a protocol from the Medical College of Wisconsin (S. Wrighton).
(§3) A typical incubation mixture (final volume 0.25 ml) contained hepatic microsomes (0.4 mg of protein) or bacterial lysate (2.3 mg of protein), NADP^+ (0.5 mM), glucose-6-phosphate (2.0 mM), glucose-6-phosphate dehydrogenase (1 IU), DETAPAC (0.8 mM) and potassium phosphate buffer (50 mM, pH 8.4). Reactions were initiated by the addition of substrate and terminated at designated times by the addition of three volumes of cold dichloromethane, mixed thoroughly and centrifuged to separate the aqueous and organic fractions. N- and S-oxide metabolic products in the resulting organic extracts were separated and quantified by HPLC. […] Thiobenzamide and thiobenzamide S-oxide were quantified with this same, HPLC system employing a mobile phase of methanol/acetonitrile/60% perchloric acid (20:80:0.016, v/v) which gave retention volumes of 2.7 and 7.0 ml, respectively. […] The major metabolites formed in the incubations were also subjected to mass spectral analysis after extraction of isolated HPLC fractions.
(§4) RPLC of the S-oxide diastereomers with a Chiracel OT chiral analytical column (25 cm×0.15 cm inner diameter, Daicel Chemical Co., New York, N.Y.) was accomplished with a Beckman system, Kratos UV detector (240 nm) and a Hewlett Packard Integrator. […] Quantification was accomplished by comparing integrated HPLC peak areas after taking into account the difference in the extinction coefficients at 240 nm. Likewise, the cis and trans S-oxide diasteromers of (+)- and (−)-2-methyl-1,-benzodithiole were separated with a Chiracel OT chiral analytical column.

Human Liver Microsomes = assay: in vitro
Method: as §1, §2, §3, §4

[1] = target: T1, adult human liver flavin-containing monooxygenase (form 3) (Homo sapiens, UniProt P31513, E158K); assay: N- and S-oxygenation by cDNA-expressed HLFMO 3 (solubilized protein from E. coli transformed with pTrcHLFMO 3), HPLC
T1 sequence (P31513 1-532 E158K): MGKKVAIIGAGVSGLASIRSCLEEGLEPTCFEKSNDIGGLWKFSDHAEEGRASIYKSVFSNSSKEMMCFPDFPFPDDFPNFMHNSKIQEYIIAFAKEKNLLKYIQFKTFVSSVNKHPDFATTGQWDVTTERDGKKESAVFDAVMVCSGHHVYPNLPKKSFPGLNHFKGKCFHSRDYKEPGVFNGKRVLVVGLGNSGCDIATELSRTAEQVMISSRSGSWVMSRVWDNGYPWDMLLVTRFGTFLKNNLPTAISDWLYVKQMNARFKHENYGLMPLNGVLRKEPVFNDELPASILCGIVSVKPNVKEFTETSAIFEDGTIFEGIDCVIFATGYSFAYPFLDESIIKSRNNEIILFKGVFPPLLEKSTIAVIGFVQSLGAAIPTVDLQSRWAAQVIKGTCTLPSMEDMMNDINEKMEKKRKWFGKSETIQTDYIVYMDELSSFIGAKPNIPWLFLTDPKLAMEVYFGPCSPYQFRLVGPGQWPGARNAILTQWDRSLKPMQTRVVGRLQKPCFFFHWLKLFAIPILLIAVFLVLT
Method: as §1
Competent NM522 Escherichia coli cells were transformed with the pTrc HLFMO 3 plasmid. […] After inoculation with a fresh overnight culture of NM522 containing pTrcHLFMO 3, the culture was grown at 37° C. until Abs600 was approximately 0.5 absorbance units. Finally, IPTG (0.8 mM) was added to the culture to induce expression of protein and the culture was left to grow overnight at 37° C.
The bacterial pellet was resuspended in 5 volumes of 50 mM potassium phosphate buffer (pH 8.4) containing 1% Triton X-100, 0.1% L-, α-phosphatidylcholine (L-α-lecithin) from egg yolk, 500 μM PMSF, and 1 mM EDTA. The mixture was sonicated and then centrifuged to remove cellular debris. As a control, bacterial lysate extracts from IPTG-induced pTrc99A-transformed NM522 cells (i.e., pTrc99A without the HLFMO 3 cDNA insert) were prepared under the same conditions.
as §2, §3, §4

## NC(=S)c1ccccc1 [Thiobenzamide, thiobenzamide]
In vitro
  Km: 14.9 µM
Human Liver Microsomes
  Vmax, Human Liver Microsomes: 1.3 nmol/min/mg of protein
[1]
  substrate activity for human liver microsomes and expressed HLFMO 3, in words: excellent substrates
[1]; in the presence of microsomes and expressed HLFMO 3
  pH of maximum S-oxygenase activity: ~8.5
